Test results published in PMC10545747, “Development of cyclopeptide inhibitors of cGAS targeting protein-DNA interaction and phase separation” (Nature Communications, 2023).
Where “and” joins values, the source holds several entries; their conditions need not be identical. Identical values can stand only once. Entries after “also recorded” stand apart in the source; their conditions may differ. Square brackets hold non-standard residues; d marks the D form. Peptide text beside a SMILES is read from it.

What was measured:
[1] = test system: TREX1 knockdown THP1 cells; test: qPCR of IFNB1 and CXCL10 mRNA after TREX1 siRNA; type: cell-based, human
Method: The indicated cells were stimulated with either ISD (Sangon Biotech), HSV-1 (Provided by Dr. Zhengfan Jiang), HSV60mer (Sangon Biotech), SATE-cddA[70], 2’3’-cGAMP (Invivogen, Cat# tlrl-nacga23-1), ADU-S100 (MedChemExpress, Cat# HY-12885A) or Poly(I:C) (Invivogen, Cat# tlrl-pic) after XQ2 or XQ2B treatment. Total RNA was isolated from indicated cells that incubated with the drugs for indicated time or mice tissues by using NucleoZOL reagent (MACHEREY-NAGEL) according to the manufacturer’s instructions. The quantifications of mRNA levels were carried out by real-time PCR using a PerfectStart® Uni RT&qPCR Kit (TransGen Biotech) on the QuantStudio 5 qPCR machine (Applied Biosystems). Samples were carried out in triplicate and the target CT values were normalized to GAPDH CT values. Primers of qPCR used in this study can be found in Supplementary Table S2.
siRNA of TREX1 (siTREX1) was transfected into the indicated cells by Lipofectamine RNAiMAX (Invitrogen) according to the manufacturer’s instructions. Human siTREX1, mouse siTrex1 and negative control siRNAs were purchased from Sangon Biotech. The sequences of siRNAs oligonucleotides can be found in Supplementary Table S2.
Supplementary Fig. 9. XQ2B reduces interferon expression induced by Trex1 deficiency. […]
TREX1 knockdown THP1 cells were treated with DMSO or XQ2B (10 μM) for 24 h, and the mRNA levels of TREX1
(e), IFNB1 and CXCL10 (f) were measured by qPCR. (e) p < 0.0001, (f) p = 0.0001 (Ifnb1); p = 0.0157 (Cxcl10). Data
Source data are provided as a Source Data file.

Trex1^-/- mice = Trex1^-/- mice model of autoimmune disease (survival, H&E, heart qPCR, antinuclear antibody); type: in vivo, mouse; set-up: Score per animal, Heart (Fig. 7d) / Score per animal, Stomach (Fig. 7d) / Score per animal, Tongue (Fig. 7d) / Score per animal, Kidney (Fig. 7d) / Score per animal, Muscle (Fig. 7d): scale not given here; Ifnb1 mRNA level (Fig. 7e) / Cxcl10 mRNA level (Fig. 7e) / Il6 mRNA level (Fig. 7e): unit not given here
Description: Aberrant accumulation of cytosolic self-dsDNA caused by loss-of-function mutations in Trex1 leads to overactivation of cGAS-STING pathway, which is associated with autoinflammatory diseases. To evaluate whether the optimized analogue XQ2B inhibits the overactivation of cGAS-STING pathway due to Trex1 deficiency, we first tested the effects of XQ2B on the expression of Ifnb1, Cxcl10 and Il6 in BMDMs harvested from Trex1^-/- mice (Supplementary Fig. 9a, b). […] We next evaluated the anti-inflammatory effect of XQ2B in Trex1^-/- mice. XQ2B (10 mg/kg) was intravenously injected into mice every other day. Six animals from each group were sacrificed on day seven to assess tissue pathology, and the rest (10 mice per group) were used to analyze survival for up to 11 days (Fig. 7b). […] Mice were killed and tissues were collected on day seven for histology and mRNA analysis.
C57BL/6 6–8 weeks old wild type (WT) mice were purchased from Gempharmatech. C57BL/6 Trex1^+/- mice were purchased from Cyagen. Trex1^-/- mice were generated by further mating the male and female Trex1^+/- mice, and 8-week-old male Trex1^-/- mice were used in the experiment. Mice were housed in groups of up to 5 mice/cage at 18 °C − 24 °C ambient temperatures with 40–60% humidity. Mice were maintained on a 12 h light/ dark cycle 6 am to 6 pm. Food and water were available ad libitum. Femurs and tibias were removed from sex-matched mice of 6–8 weeks old, and the ends were clipped. Marrow was pushed from bones by using a syringe, and cell clumps were broken apart into cell particles by pipetting in PBS, and passed through a 70 μm cell strainer. Cells were resuspended in red blood cell lysis buffer (Solarbio) for 5 min after being centrifuged with 200 × g for 5 min, and were resuspended in cell culture media (DMEM) with an additional M-CSF (50 ng/ml) after centrifugation, and then were seeded into a 12-well plate. Half of the cell culture media was replaced with a fresh medium on the third day, and performed a complete media change on the fifth day. BMDMs were used for subsequent experiments after the seventh day. All the animal experiments in these studies were approved and overseen by the ethics committee of the Laboratory Animal Center of Peking University Shenzhen Graduate School in accordance with the Policy on the Care, Welfare, and Treatment of Laboratory Animals. The assigned approval or accreditation number is AP0020005.
Tissues were resected and fixed successively in 4% paraformaldehyde, and embedded in paraffin according to the standard procedure, and then sectioned into 10-μm slices and placed on positively charged microscope slides. Sections of the brain were subjected to immunohistochemical (IHC) staining with an anti-HSV-1 antibody (Abcam, 1:100) and HRP-conjugated anti-rabbit IgG antibody (Cell Signaling, Cat# 7074, 1:200) according to standard procedures. Sections of the heart, stomach, tongue, kidney and muscle were stained with hematoxylin and eosin. Tissue sections were visualized using an Olympus IX73 microscope (20× Objective).
Anti-nuclear antibodies were performed with 1:160 diluted sera by using a FLUORO HEPANA TEST kit (MBL BEIJING BIOTECH) according to the manufacturer’s protocols.

hcGAS-FL + FAM-ISD = hcGAS-FL + FAM-ISD (Homo sapiens, UniProt Q8N884); test: biochemical
Chain of hcGAS-FL + FAM-ISD (Q8N884 whole entry): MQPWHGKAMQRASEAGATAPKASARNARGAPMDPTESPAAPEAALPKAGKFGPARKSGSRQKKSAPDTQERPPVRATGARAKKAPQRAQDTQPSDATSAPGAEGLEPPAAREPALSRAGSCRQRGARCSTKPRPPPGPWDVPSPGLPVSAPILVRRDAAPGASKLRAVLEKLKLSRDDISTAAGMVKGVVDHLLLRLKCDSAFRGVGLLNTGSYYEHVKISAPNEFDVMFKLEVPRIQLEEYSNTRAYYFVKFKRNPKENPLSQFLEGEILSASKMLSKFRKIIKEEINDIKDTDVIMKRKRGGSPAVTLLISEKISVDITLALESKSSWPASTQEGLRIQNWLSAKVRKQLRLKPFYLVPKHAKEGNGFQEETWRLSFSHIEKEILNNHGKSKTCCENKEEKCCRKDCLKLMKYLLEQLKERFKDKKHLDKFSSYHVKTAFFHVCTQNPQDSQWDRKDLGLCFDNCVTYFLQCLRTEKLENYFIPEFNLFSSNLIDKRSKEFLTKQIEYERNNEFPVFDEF
Method: Purified hcGAS-FL (300 nM) or hcGAS-FL (D191R) (300 nM) and FAM-labeled DNA (FAM-ISD) (40 nM) were incubated with or without XQ2 in buffer (20 mM HEPSE, pH 7.5, 125 mM KCl, 10 mM MgCl2). Samples were dispensed in 30 μ L final volumes per well into a 384-well flat-bottom black plate (Corning 3575). The polarization was detected by a microplate reader (BioTek Synergy H1) with a fluorescence polarization filter cube (excitation wavelength: 485 ± 10 nm; emission wavelength: 528 ± 10 nm) immediately.

[2] = 10 mg/kg i.v. every other day, day seven

| Structure (SMILES) | Relative mRNA level Cxcl10 ([1]; Fig. S9f, TREX1 knockdown (siTREX1 +) THP1 cells, XQ2B +, individual replicates, siTREX1 alone 2.64-3.32) | Relative mRNA level Ifnb1 ([1]; Fig. S9f, TREX1 knockdown (siTREX1 +) THP1 cells, XQ2B +, individual replicates, siTREX1 alone 15.6-16.4) | expression of Ifnb1, Cxcl10 with Trex1-siRNA ([1]; THP1, 10 μM, 24 h) | serum level of antinuclear antibody (Trex1^-/- mice; 10 mg/kg i.v. every other day) | heart Ifnb1, Cxcl10 and Il6 mRNA (Trex1^-/- mice; [2]) | tissue inflammation, H&E (Trex1^-/- mice; [2]) | survival of Trex1^-/- mice (Trex1^-/- mice; 10 mg/kg i.v. every other day, up to 11 days, n = 10, 3 of 10 untreated died) | Score per animal, Heart (Fig. 7d) (Trex1^-/- mice; KO(XQ2B)) | Score per animal, Kidney (Fig. 7d) (Trex1^-/- mice; KO(XQ2B)) | Score per animal, Muscle (Fig. 7d) (Trex1^-/- mice; KO(XQ2B)) | Score per animal, Stomach (Fig. 7d) (Trex1^-/- mice; KO(XQ2B)) | Score per animal, Tongue (Fig. 7d) (Trex1^-/- mice; KO(XQ2B)) | Cxcl10 mRNA level (Fig. 7e) (Trex1^-/- mice; Trex1 KO+XQ2B, per animal) | Ifnb1 mRNA level (Fig. 7e) (Trex1^-/- mice; Trex1 KO+XQ2B, per animal) | Il6 mRNA level (Fig. 7e) (Trex1^-/- mice; Trex1 KO+XQ2B, per animal) | IC50 (hcGAS-FL + FAM-ISD) [µM] |
| --- | --- | --- | --- | --- | --- | --- | --- | --- | --- | --- | --- | --- | --- | --- | --- | --- |
| CC(C)C[C@@H]1NC(=O)[C@H](CCCNC(=N)N)NC(=O)[C@H](C(C)C)NC(=O)[C@@H]2CCCN2C(=O)[C@@H](Cc2ccccc2)NC(=O)[C@H](CC(C)C)NC(=O)[C@H](CCCNC(=N)N)NC(=O)[C@H]([C@@H](C)O)NC(=O)[C@H](C)NC(=O)[C@@H](Cc2ccccc2)NC1=O [XQ2B] (cyclo([dF]ATRL[dF]PVRL)) | 2.255 and 1.956 and 2.174 | 8.9487 and 8.582 and 9.951 | markedly inhibited the expression of these genes in mouse L929 and human THP1 cells with Trex1-siRNA | markedly reduced by XQ2B treatment | significantly suppressed the mRNA level of Ifnb1, Cxcl10 and Il6 caused by Trex1 deficiency | ameliorates rather than reverses the systemic inflammation in Trex1-/- mice; also recorded: significantly attenuated the inflammation | none of the 10 mice treated with XQ2B died during treatment | 5 (2×) and 8 (2×) and 6 and 4 and 7 and 9 | 3 (2×) and 6 and 5 (2×) and 2 and 4 and 7 | 4 (3×) and 2 and 6 and 3 (2×) and 5 | 3 and 8 (2×) and 6 and 9 and 5 (2×) and 7 | 3 and 7 (2×) and 8 and 5 (2×) and 6 and 4 | 99.6532 and 144.536 and 126.503 and 174.75 and 186.166 | 12.3782 and 6.326 and 6.444 and 5.852 and 6.524 | 3.8548 and 4.605 and 4.215 and 10.789 and 5.351 |  |
| CC(C)C[C@@H]1NC(=O)[C@H](CCCNC(=N)N)NC(=O)[C@H](C(C)C)NC(=O)[C@@H]2CCCN2C(=O)[C@@H](Cc2ccccc2)NC(=O)[C@H](CC(C)C)NC(=O)[C@H](CCCNC(=N)N)NC(=O)[C@H](C(C)C)NC(=O)[C@H](C)NC(=O)[C@@H](Cc2ccccc2)NC1=O [XQ2, Cyclo (LfAVRLfPVR)] (cyclo(L[dF]AVRL[dF]PVR)) |  |  |  |  |  |  |  |  |  |  |  |  |  |  |  | 19.2 ± 6.7 |
